Values of other authors as cited in patent US20080280370A1, “METHODS AND COMPOSITIONS FOR DETECTING […] METABOLITES THEREOF” (priority 2007, published 2008).

What was measured:
plants = conditions: metabolite formed by glyat acetylation; Castle et al. (2004)
[1] = molecular target: T1, EPSPS (enolpyruvylshikimate-3-phosphate synthase) enzyme (Arabidopsis thaliana, UniProt P05466); conditions: enzyme required for biosynthesis of aromatic amino acids in plants
T1 sequence (P05466 77-520): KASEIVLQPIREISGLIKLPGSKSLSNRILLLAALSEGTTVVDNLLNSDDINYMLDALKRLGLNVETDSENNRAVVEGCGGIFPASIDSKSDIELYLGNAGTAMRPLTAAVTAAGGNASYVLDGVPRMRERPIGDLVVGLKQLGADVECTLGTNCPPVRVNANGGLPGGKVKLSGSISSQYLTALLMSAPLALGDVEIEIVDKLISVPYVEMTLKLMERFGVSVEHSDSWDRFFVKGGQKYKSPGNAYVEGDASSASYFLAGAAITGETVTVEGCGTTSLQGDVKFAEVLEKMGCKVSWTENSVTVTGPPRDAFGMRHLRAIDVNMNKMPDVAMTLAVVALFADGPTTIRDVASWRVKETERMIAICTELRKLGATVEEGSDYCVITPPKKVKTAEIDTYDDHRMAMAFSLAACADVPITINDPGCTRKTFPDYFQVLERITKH

CC(=O)N(CC(=O)O)CP(=O)(O)O [N-acetylglyphosate, N-Acetyl-N-(phosphonomethyl)glycine]
Phytotoxicity (plants): non-phytotoxic

O=C(O)CNCP(=O)(O)O [glyphosate, N-(phosphonomethyl)glycine]
Effect on EPSPS enzyme [1]: inhibits
